Results: PubChem BioAssay (NCI)
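Compound exposure: 48 hours, 5 concentrations, 96-well plates. At the GI50, growth is halved. TGI: total growth inhibition.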

Tests used:
Assay in all cases: DTP human tumour cell line panel, 48 h
RPMI-8226 leukemia = tested on: RPMI-8226 leukemia
CCRF-CEM leukemia = tested on: CCRF-CEM leukemia
HT29 colon = tested on: HT29 colon
DU-145 prostate = tested on: DU-145 prostate
SNB-19 CNS = tested on: SNB-19 CNS
SK-MEL-2 melanoma = tested on: SK-MEL-2 melanoma
NCI/ADR-RES ovarian = tested on: NCI/ADR-RES ovarian
SK-MEL-28 melanoma = tested on: SK-MEL-28 melanoma
HOP-62 NSCLC = tested on: HOP-62 NSCLC
UO-31 renal = tested on: UO-31 renal
OVCAR-5 ovarian = tested on: OVCAR-5 ovarian
SNB-75 CNS = tested on: SNB-75 CNS
OVCAR-3 ovarian = tested on: OVCAR-3 ovarian
MOLT-4 leukemia = tested on: MOLT-4 leukemia
A498 renal = tested on: A498 renal
SW-620 colon = tested on: SW-620 colon
PC-3 prostate = tested on: PC-3 prostate
NCI-H460 lung = tested on: NCI-H460 lung
HCT-116 colon = tested on: HCT-116 colon
K-562 leukemia = tested on: K-562 leukemia
SF-295 CNS = tested on: SF-295 CNS
UACC-62 melanoma = tested on: UACC-62 melanoma
IGROV1 ovarian = tested on: IGROV1 ovarian
HL-60(TB) leukemia = tested on: HL-60(TB) leukemia
SN12C renal = tested on: SN12C renal
LOX IMVI melanoma = tested on: LOX IMVI melanoma
UACC-257 melanoma = tested on: UACC-257 melanoma
BT-549 breast = tested on: BT-549 breast
KM12 colon = tested on: KM12 colon
M14 melanoma = tested on: M14 melanoma
MALME-3M melanoma = tested on: MALME-3M melanoma
RXF 393 renal = tested on: RXF 393 renal
CAKI-1 renal = tested on: CAKI-1 renal
HS 578T breast = tested on: HS 578T breast
EKVX NSCLC = tested on: EKVX NSCLC
TK-10 renal = tested on: TK-10 renal
A549 NSCLC = tested on: A549 NSCLC
NCI-H23 lung = tested on: NCI-H23 lung
T-47D breast = tested on: T-47D breast
MDA-MB-435 = tested on: MDA-MB-435
COLO 205 colon = tested on: COLO 205 colon
786-0 renal = tested on: 786-0 renal
ACHN renal = tested on: ACHN renal
U251 CNS = tested on: U251 CNS
MDA-MB-231 breast = tested on: MDA-MB-231 breast
MCF7 breast = tested on: MCF7 breast
HCT-15 colon = tested on: HCT-15 colon
SF-539 CNS = tested on: SF-539 CNS
SF-268 CNS = tested on: SF-268 CNS
SK-MEL-5 melanoma = tested on: SK-MEL-5 melanoma
OVCAR-8 ovarian = tested on: OVCAR-8 ovarian
SR leukemia = tested on: SR leukemia
HOP-92 NSCLC = tested on: HOP-92 NSCLC
OVCAR-4 ovarian = tested on: OVCAR-4 ovarian
HCC-2998 colon = tested on: HCC-2998 colon
NCI-H522 lung = tested on: NCI-H522 lung
SK-OV-3 ovarian = tested on: SK-OV-3 ovarian
NCI-H226 lung = tested on: NCI-H226 lung

With `Cc1ccc(C(=O)Nc2ccc(CN3CCN(C)CC3)c(C(F)(F)F)c2)cc1C#Cc1cnc(N)cc1C#N` as the compound, how does the GI50 (RPMI-8226 leukemia) read?
The GI50 was 496 nM.

And the TGI (RPMI-8226 leukemia)?
The TGI was 2700 nM.

What about the GI50 (CCRF-CEM leukemia) of the same compound?
Its GI50 is 460 nM.

And the TGI (CCRF-CEM leukemia)?
Its TGI is 9610 nM.

What about the GI50 (HT29 colon) of the same compound?
Its GI50 is 51 nM.

What about the TGI (HT29 colon) of the same compound?
The TGI was 729 nM.

And the GI50 (DU-145 prostate)?
The GI50 was 127 nM.

What about the TGI (DU-145 prostate) of the same compound?
Its TGI is 838 nM.

What about the GI50 (SNB-19 CNS) of the same compound?
The GI50 was 539 nM.

What about the TGI (SNB-19 CNS) of the same compound?
The TGI was 1300 nM.

And the GI50 (SK-MEL-2 melanoma)?
The GI50 was 108 nM.

What about the TGI (SK-MEL-2 melanoma) of the same compound?
The TGI was 479 nM.

What about the GI50 (NCI/ADR-RES ovarian) of the same compound?
The GI50 was 270 nM.

And the TGI (NCI/ADR-RES ovarian)?
Its TGI is 1680 nM.

What about the GI50 (SK-MEL-28 melanoma) of the same compound?
Its GI50 is 106 nM.

And the TGI (SK-MEL-28 melanoma)?
Its TGI is 701 nM.

And the GI50 (HOP-62 NSCLC)?
Its GI50 is 298 nM.

And the TGI (HOP-62 NSCLC)?
The TGI was 2050 nM.

And the GI50 (UO-31 renal)?
Its GI50 is 94.9 nM.

What about the TGI (UO-31 renal) of the same compound?
Its TGI is 442 nM.

What about the GI50 (OVCAR-5 ovarian) of the same compound?
Its GI50 is 309 nM.

What about the TGI (OVCAR-5 ovarian) of the same compound?
The TGI was 1420 nM.

What about the GI50 (SNB-75 CNS) of the same compound?
Its GI50 is 112 nM.

What about the TGI (SNB-75 CNS) of the same compound?
Its TGI is 798 nM.

What about the GI50 (OVCAR-3 ovarian) of the same compound?
Its GI50 is 211 nM.

What about the TGI (OVCAR-3 ovarian) of the same compound?
The TGI was 1010 nM.

What about the GI50 (MOLT-4 leukemia) of the same compound?
The GI50 was 137 nM.

And the TGI (MOLT-4 leukemia)?
The TGI was 1080 nM.

And the GI50 (A498 renal)?
Its GI50 is 159 nM.

What about the TGI (A498 renal) of the same compound?
The TGI was 701 nM.

And the GI50 (SW-620 colon)?
Its GI50 is 330 nM.

What about the TGI (SW-620 colon) of the same compound?
Its TGI is 1150 nM.

What about the GI50 (PC-3 prostate) of the same compound?
The GI50 was 343 nM.

And the TGI (PC-3 prostate)?
The TGI was 1760 nM.

What about the GI50 (NCI-H460 lung) of the same compound?
Its GI50 is 91.5 nM.

What about the TGI (NCI-H460 lung) of the same compound?
Its TGI is 968 nM.

What about the GI50 (HCT-116 colon) of the same compound?
Its GI50 is 85.2 nM.

What about the TGI (HCT-116 colon) of the same compound?
Its TGI is 642 nM.

What about the GI50 (K-562 leukemia) of the same compound?
Its GI50 is 5 nM.

And the TGI (K-562 leukemia)?
The TGI was 6120 nM.

What about the GI50 (SF-295 CNS) of the same compound?
Its GI50 is 315 nM.

What about the TGI (SF-295 CNS) of the same compound?
The TGI was 1160 nM.

What about the GI50 (UACC-62 melanoma) of the same compound?
The GI50 was 31 nM.

What about the TGI (UACC-62 melanoma) of the same compound?
Its TGI is 452 nM.

What about the GI50 (IGROV1 ovarian) of the same compound?
Its GI50 is 26.5 nM.

What about the TGI (IGROV1 ovarian) of the same compound?
The TGI was 276 nM.

What about the GI50 (HL-60(TB) leukemia) of the same compound?
Its GI50 is 233 nM.

What about the TGI (HL-60(TB) leukemia) of the same compound?
The TGI was 1080 nM.

And the GI50 (SN12C renal)?
The GI50 was 91.8 nM.

What about the TGI (SN12C renal) of the same compound?
Its TGI is 733 nM.

And the GI50 (LOX IMVI melanoma)?
The GI50 was 39.4 nM.

What about the TGI (LOX IMVI melanoma) of the same compound?
The TGI was 522 nM.

What about the GI50 (UACC-257 melanoma) of the same compound?
Its GI50 is 132 nM.

What about the TGI (UACC-257 melanoma) of the same compound?
The TGI was 834 nM.

And the GI50 (BT-549 breast)?
Its GI50 is 654 nM.

And the TGI (BT-549 breast)?
Its TGI is 2670 nM.

What about the GI50 (KM12 colon) of the same compound?
Its GI50 is 122 nM.

And the TGI (KM12 colon)?
The TGI was 716 nM.

And the GI50 (M14 melanoma)?
The GI50 was 21 nM.

And the TGI (M14 melanoma)?
Its TGI is 511 nM.

And the GI50 (MALME-3M melanoma)?
The GI50 was 27.6 nM.

And the TGI (MALME-3M melanoma)?
The TGI was 187 nM.

What about the GI50 (RXF 393 renal) of the same compound?
The GI50 was 129 nM.

And the TGI (RXF 393 renal)?
Its TGI is 706 nM.

What about the GI50 (CAKI-1 renal) of the same compound?
The GI50 was 82.8 nM.

And the TGI (CAKI-1 renal)?
Its TGI is 538 nM.

What about the GI50 (HS 578T breast) of the same compound?
Its GI50 is 143 nM.

What about the TGI (HS 578T breast) of the same compound?
The TGI was 1330 nM.

And the GI50 (EKVX NSCLC)?
The GI50 was 366 nM.

And the TGI (EKVX NSCLC)?
Its TGI is 1440 nM.

And the GI50 (TK-10 renal)?
The GI50 was 190 nM.

And the TGI (TK-10 renal)?
The TGI was 833 nM.

And the GI50 (A549 NSCLC)?
The GI50 was 233 nM.

What about the TGI (A549 NSCLC) of the same compound?
Its TGI is 958 nM.

What about the GI50 (NCI-H23 lung) of the same compound?
The GI50 was 340 nM.

What about the TGI (NCI-H23 lung) of the same compound?
The TGI was 1280 nM.

And the GI50 (T-47D breast)?
Its GI50 is 605 nM.

What about the TGI (T-47D breast) of the same compound?
The TGI was 8710 nM.

And the GI50 (MDA-MB-435)?
Its GI50 is 72.1 nM.

And the TGI (MDA-MB-435)?
Its TGI is 659 nM.

What about the GI50 (COLO 205 colon) of the same compound?
The GI50 was 90.1 nM.

What about the TGI (COLO 205 colon) of the same compound?
Its TGI is 714 nM.

What about the GI50 (786-0 renal) of the same compound?
Its GI50 is 162 nM.

And the TGI (786-0 renal)?
The TGI was 826 nM.

And the GI50 (ACHN renal)?
Its GI50 is 74 nM.

And the TGI (ACHN renal)?
Its TGI is 555 nM.

What about the GI50 (U251 CNS) of the same compound?
The GI50 was 222 nM.

And the TGI (U251 CNS)?
The TGI was 997 nM.

And the GI50 (MDA-MB-231 breast)?
Its GI50 is 112 nM.

What about the TGI (MDA-MB-231 breast) of the same compound?
Its TGI is 621 nM.

What about the GI50 (MCF7 breast) of the same compound?
Its GI50 is 701 nM.

What about the TGI (MCF7 breast) of the same compound?
The TGI was 1580 nM.

What about the GI50 (HCT-15 colon) of the same compound?
The GI50 was 130 nM.

And the TGI (HCT-15 colon)?
Its TGI is 762 nM.

What about the GI50 (SF-539 CNS) of the same compound?
Its GI50 is 277 nM.

What about the TGI (SF-539 CNS) of the same compound?
The TGI was 926 nM.

What about the GI50 (SF-268 CNS) of the same compound?
The GI50 was 200 nM.

And the TGI (SF-268 CNS)?
The TGI was 1200 nM.

And the GI50 (SK-MEL-5 melanoma)?
The GI50 was 741 nM.

What about the TGI (SK-MEL-5 melanoma) of the same compound?
The TGI was 1430 nM.

And the GI50 (OVCAR-8 ovarian)?
The GI50 was 224 nM.

And the TGI (OVCAR-8 ovarian)?
Its TGI is 1150 nM.

And the GI50 (SR leukemia)?
Its GI50 is 162 nM.

What about the TGI (SR leukemia) of the same compound?
The TGI was 1230 nM.

And the GI50 (HOP-92 NSCLC)?
Its GI50 is 49.6 nM.

And the TGI (HOP-92 NSCLC)?
The TGI was 566 nM.

And the GI50 (OVCAR-4 ovarian)?
Its GI50 is 99.8 nM.

What about the TGI (OVCAR-4 ovarian) of the same compound?
The TGI was 1420 nM.

And the GI50 (HCC-2998 colon)?
Its GI50 is 407 nM.

And the TGI (HCC-2998 colon)?
The TGI was 1170 nM.

And the GI50 (NCI-H522 lung)?
The GI50 was 176 nM.

What about the TGI (NCI-H522 lung) of the same compound?
The TGI was 925 nM.

What about the GI50 (SK-OV-3 ovarian) of the same compound?
The GI50 was 186 nM.

What about the TGI (SK-OV-3 ovarian) of the same compound?
The TGI was 2500 nM.

And the GI50 (NCI-H226 lung)?
Its GI50 is 155 nM.

What about the TGI (NCI-H226 lung) of the same compound?
The TGI was 4950 nM.
